Experimental data taken from ChEMBL document CHEMBL1201862, “PubChem BioAssay data set” (2004).
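How tested: cells in 96-well plates exposed to compound for 48 hours at five concentrations. GI50 is the concentration that inhibits growth by half.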 Active and inactive are the calls of the source. Rule as the data show it: active = GI50 up to about 1.1 µM and inactive = higher.

Key:
Experiment in all cases: NCI anticancer screen, dose series, 48 h
[1] = test system: XF498
[2] = test system: LXFL 529
[3] = test system: KM-20L2
[4] = test system: SNB-78
[5] = test system: M19-MEL
[6] = test system: DMS-114
[7] = test system: DMS-273
[8] = test system: HOP-18
[9] = test system: RXF 631

Row | SMILES | GI50 [1] | GI50 [2] | GI50 [3] | GI50 [4] | GI50 [5] | GI50 [6] | GI50 [7] | GI50 [8] | GI50 [9]
1 | COc1ccc(/C=C2/C(=O)N(C(=O)c3ccc(Cl)cc3)N=C2C)cc1OC | > 100 µM (inactive) | > 100 µM (inactive) | > 100 µM (inactive) | > 100 µM (inactive) | > 100 µM (inactive) | > 100 µM (inactive) |  |  | 
2 | CC(=O)O.CN1CCN(CN2C(=O)C3C4C=CC(C3C2=O)C2C3C(=O)N(CN5CCN(C)CC5)C(=O)C3C42)CC1 (configuration not stated) |  | 18.1 µM (inactive) | 20.3 µM (inactive) |  |  | 20.1 µM (inactive) |  |  | 
3 | COc1ccc(S(=O)(=O)N(C)CC(=O)O)cc1 | > 100 µM (inactive) | > 100 µM (inactive) | > 100 µM (inactive) |  | > 100 µM (inactive) |  | > 100 µM (inactive) | > 100 µM (inactive) | > 100 µM (inactive)
4 | COc1ccc(/N=c2\ssc3c(=S)ssc23)cc1 |  | 14.8 µM (inactive) |  | 34.2 µM (inactive) | 30.2 µM (inactive) | 0.959 µM (active) | 26.4 µM (inactive) |  | 
5 | Cc1ccc(C(=O)/C=C/c2ccccc2O)c(C)c1 |  | > 100 µM (inactive) | > 100 µM (inactive) | > 100 µM (inactive) | 1.35 µM (inactive) | > 100 µM (inactive) | > 100 µM (inactive) |  | 
6 | O=C1Nc2ccccc2C1(O)C/C(=N/O)c1ccc2ccccc2c1 (configuration not stated) | 93.3 µM (inactive) | 91.2 µM (inactive) | > 100 µM (inactive) | 60.1 µM (inactive) | 45.5 µM (inactive) | 64.6 µM (inactive) |  | > 100 µM (inactive) | 29.7 µM (inactive)
7 | CN(c1ccccc1)C(c1ccccc1)C(O)c1ccccc1 (configuration not stated) |  | 21 µM (inactive) | 19.4 µM (inactive) | 22.6 µM (inactive) | 23.1 µM (inactive) | 20.9 µM (inactive) | 18.7 µM (inactive) | 14.9 µM (inactive) | 18.8 µM (inactive)
8 | c1ccc2c(c1)[Se]c1ccccc1[Se]2 | > 100 µM (inactive) | 61.4 µM (inactive) | > 100 µM (inactive) | 30.5 µM (inactive) | > 100 µM (inactive) | 67 µM (inactive) | > 100 µM (inactive) | 4.92 µM (inactive) | 
9 | Cc1cc(NC(=O)C2C3C=CC(O3)C2C(=O)O)no1 (configuration not stated) | > 100 µM (inactive) | 20.4 µM (inactive) | 13.7 µM (inactive) | > 100 µM (inactive) | 28.1 µM (inactive) | 15.7 µM (inactive) | 16.8 µM (inactive) | > 100 µM (inactive) | 80.5 µM (inactive)
10 | Cc1ccc(S(=O)(=O)OC2CC=CC2)cc1 | > 100 µM (inactive) | > 100 µM (inactive) | > 100 µM (inactive) | > 100 µM (inactive) | > 100 µM (inactive) | > 100 µM (inactive) | > 100 µM (inactive) | > 100 µM (inactive) | 
11 | CCOC(=O)C(C)(NC(=O)c1ccc(NCc2ccc3nc(NC(=O)c4ccccc4)nc(NC(=O)c4ccccc4)c3c2)cc1)C(=O)OCC |  |  | 18.4 µM (inactive) | 9.23 µM (inactive) | 8.93 µM (inactive) | 16.8 µM (inactive) | 9.23 µM (inactive) | 37.8 µM (inactive) | 12.2 µM (inactive)
12 | CC(C)c1cc2c(O)c(c1)Cc1cc(C(C)C)cc(c1O)Cc1cc(C(C)C)cc(c1O)Cc1cc(C(C)C)cc(c1O)C2 | > 100 µM (inactive) |  | > 100 µM (inactive) | > 100 µM (inactive) | > 100 µM (inactive) | > 100 µM (inactive) | > 100 µM (inactive) | > 100 µM (inactive) | 
13 | O=C1NC(=O)C(CCC(=O)c2ccc3ccccc3c2)C(=O)N1 | > 100 µM (inactive) | > 100 µM (inactive) | > 100 µM (inactive) | > 100 µM (inactive) | > 100 µM (inactive) | > 100 µM (inactive) | > 100 µM (inactive) | > 100 µM (inactive) | > 100 µM (inactive)
14 | CC(=O)NNc1nc(C)c(C(=O)NNC(=O)C(=O)Nc2c([N+](=O)[O-])ccc(C)c2C)s1 | > 100 µM (inactive) | 65.2 µM (inactive) | > 100 µM (inactive) | > 100 µM (inactive) | > 100 µM (inactive) | > 100 µM (inactive) | > 100 µM (inactive) |  | 
15 | COc1cc(C2C(C(=O)O)=C(C)Oc3cc4c(cc32)OCO4)cc(OC)c1OC (configuration not stated) | 42.2 µM (inactive) |  | 32.4 µM (inactive) | 50.4 µM (inactive) | 30.8 µM (inactive) | 16.2 µM (inactive) | 13.7 µM (inactive) | 28.8 µM (inactive) | 36.1 µM (inactive)
16 | CC(O)CN1C(=O)NC(Cc2ccccc2)C1=O (configuration not stated) | > 100 µM (inactive) | > 100 µM (inactive) | > 100 µM (inactive) | > 100 µM (inactive) |  | > 100 µM (inactive) | > 100 µM (inactive) | > 100 µM (inactive) | 
17 | Cc1cc2c(c(C(N)=O)c1C)-c1ccccc1C2=O |  | > 100 µM (inactive) | > 100 µM (inactive) | > 100 µM (inactive) | > 100 µM (inactive) | > 100 µM (inactive) | > 100 µM (inactive) | > 100 µM (inactive) | > 100 µM (inactive)
18 | COc1ccccc1N1C(=O)/C(=C/c2ccc(N(CCC#N)CCC#N)cc2C)N=C1c1cc([N+](=O)[O-])ccc1Cl | > 100 µM (inactive) | > 100 µM (inactive) | > 100 µM (inactive) | > 100 µM (inactive) | 24.2 µM (inactive) | > 100 µM (inactive) | > 100 µM (inactive) | > 100 µM (inactive) | 
19 | COC(=O)C(=O)C(C(=O)OC)C(=O)C(=O)Nc1c(C)cccc1C (configuration not stated) | > 100 µM (inactive) | > 100 µM (inactive) | > 100 µM (inactive) | > 100 µM (inactive) | > 100 µM (inactive) | > 100 µM (inactive) |  | > 100 µM (inactive) | > 100 µM (inactive)
20 | CCN(CC)CCNc1c2ccccc2nc2cccc([N+](=O)[O-])c12 | 0.0193 µM (active) | 0.0211 µM (active) | 0.0303 µM (active) | 0.0993 µM (active) | 0.0352 µM (active) | 0.0241 µM (active) | 0.0358 µM (active) |  | 0.0317 µM (active)
21 | COc1ccc(OCC(=O)O)c(C(=O)CCC(=O)O)c1 | > 100 µM (inactive) | > 100 µM (inactive) |  | > 100 µM (inactive) | > 100 µM (inactive) | > 100 µM (inactive) | > 100 µM (inactive) |  | > 100 µM (inactive)
22 | COc1cccc(SSc2cccc(OC)c2C(=O)O)c1C(=O)O | > 100 µM (inactive) | > 100 µM (inactive) | > 100 µM (inactive) | > 100 µM (inactive) | > 100 µM (inactive) | > 100 µM (inactive) | > 100 µM (inactive) | > 100 µM (inactive) | > 100 µM (inactive)
23 | O=C(CNc1ccc2c(=S)c3ccccc3[nH]c2c1)Nc1ccccc1-c1ccccc1NC(=O)CNc1ccc2c(=S)c3ccccc3[nH]c2c1 | 19.1 µM (inactive) | 7.45 µM (inactive) | 19.7 µM (inactive) | 32.9 µM (inactive) | > 39.2 µM (inactive) | 17.1 µM (inactive) | > 46 µM (inactive) | 16.1 µM (inactive) | 
24 | CCN(CC)CCN1C(=O)CC2[C@@H]3CCc4cc(OC)ccc4C3CC[C@]2(C)C1=O (some centres not stated) |  | 16.4 µM (inactive) | 20.1 µM (inactive) | 28.5 µM (inactive) | 18.7 µM (inactive) |  |  |  | 
25 | CCC(Oc1ccc(OC)c2ccccc(=O)c12)C(=O)O (configuration not stated) |  | > 100 µM (inactive) |  | > 100 µM (inactive) | > 100 µM (inactive) | > 100 µM (inactive) | > 100 µM (inactive) |  | > 100 µM (inactive)
26 | NCCCC(N)(C(=O)O)C(F)F (configuration not stated) [EFLORNITHINE] |  | > 100 µM (inactive) | > 5000 µM (inactive) | > 5000 µM (inactive) | > 3450 µM (inactive) | > 5000 µM (inactive) | 1220 µM (inactive) | > 50 µM (inactive) | > 100 µM (inactive)
